Source: patent US6838445B1, “Tumor antigen peptide originating in SART-1” (Kyogo Itoh, priority 1998, dated 2005)
Where no end group is shown, it is not given here.

Tests used:
[1] = test system: KE-4CTL reacting with HLA-A2402-expressing VA-13 cells; experiment: IFN-γ production by KE-4CTL against peptide-pulsed HLA-A2402-expressing VA-13 cells (ELISA); format: cell-based, human; settings: peptide 10 μM for 2 hours on HLA-A2402-expressing VA-13 cells, 18 hours culture with 2×10^4 KE-4CTLs
Procedure: Concretely, when peripheral blood lymphocytes are isolated from HLA-A24 antigen-positive human and candidate peptides are added thereto to stimulate in vitro, it can be evaluated by determining whether or not CTLs that specifically recognize the candidate peptide-pulsed HLA-A24-positive cells are induced. Here, the presence or absence of the induction of the CTLs can be examined, for instance, by assaying an amount of various cytokines (for instance, IFN-γ) produced by CTLs in reaction with the antigen peptide presenting cells by means of enzyme-linked immunosorbent assay (ELISA) or the like. As the antigen peptide presenting cells (target cells) during the assay, there are included, for instance, esophageal cancer cell line KE-4 (FERM BP-5955). In addition, the induction can be examined by the method for assaying CTL toxicity on ^51Cr-labeled antigen peptide presenting cells (^51Cr-release assay, Int. J. Cancer, 58:317, 1994). Further, the induction can be examined by pulsing with candidate peptides to cells resulting from introduction of an expression plasmid into, for instance, COS-7 cells (ATCC No. CRL1651) and VA-13 cells (RIKEN CELL BANK), the expression plasmid for expressing HLA-A24 cDNA [Cancer Res., 55:4248-4252 (1995); Genbank Accession No. M64740]; reacting KE-4CTL (FERM BP-5954), or CTLs prepared in the manner described above, or the like with the resulting cells; and assaying an amount of various cytokines (for instance, IFN-γ) that are produced by CTLs.
HLA-A2402 cDNA (listed in Genbank Accession No. M64740) was obtained from KE-4 in accordance with the description in the publication (Cancer Res., 55:4248, 1995), and a recombinant plasmid was prepared by incorporating the resulting product into an expression vector pCR3 (manufactured by INVITROGEN). This plasmid was transfected to 10^4 cells of VA-13 cells (available from RIKEN CELL BANK; Ann. Med Exp. Biol. Fenn., 44:242, 1966) by lipofectin method in accordance with the publication (J. Exp. Med., 187:277, 1998), to thereby express HLA-A2402. Each of the peptides “725-733,” “740-750,” “746-755,” “746-756” and “758-766*” among those listed in Example 1 was added at 10 μM in 2 hours, and thereafter the mixture was cultured for 18 hours together with 2×10^4 of KE-4CTLs. An amount of IFN-γ produced by KE-4CTLs in the culture supernatant was assayed by ELISA method. […] Thereafter, the resulting product was developed by using Peroxidase Developing Kit T (manufactured by Sumitomo Bakelite Company, Limited), and thereafter its absorbance (405 nm) was determined. The resulting value was quantified by comparing it with the value obtained from standard IFN-γ. […]

[2] = test system: HLA-A2402-positive KE-4 cells; experiment: Induction of CTLs from peripheral blood lymphocytes by peptide; IFN-γ release against KE-4 target cells (ELISA); format: cell-based, human; settings: for induction of antigen peptide-specific CTLs from peripheral blood lymphocytes: conclusion from Table 1; for reactivity of peptide-stimulated peripheral blood lymphocytes against KE-4 compared with negative control QG56: from Table 1; for IFN-γ (pg/ml) in Supernatant: peripheral blood lymphocytes (HLA-A24 homo healthy donors) stimulated three times with 10 μM peptide, 8×10^4 effectors, target cells KE-4 (1×10^4)
Procedure: (§1) First, lymphocytes were isolated by Ficol method from peripheral blood of healthy donors whose HLA-A locus is A24 homo. The lymphocytes were aliquoted to a 24-well plate so as to be 2×10^6 cells/well, and cultured in a culture medium containing 45% RPMI 1640 medium, 45% AIM-V medium, 10% FCS and 100 U/ml IL-2. Each of the above-mentioned tumor antigen peptides was added to the culture medium so as to have a concentration of 10 μM, to stimulate the peripheral blood lymphocytes. One week later, the above-mentioned tumor antigen peptide was added thereto so as to have a concentration of 10 μM, together with about 2×10^5 of X-ray irradiated (50 Gy) peripheral blood lymphocytes, to carry out a second stimulation of the lymphocytes. After another week, a third stimulation was carried out by repeating the procedures in the same manner as above. After one week from the third stimulation, the cultured lymphocytes were collected. The amount of IFN-γ of the supernatant was assayed by ELISA, the supernatant being produced by reacting the above-mentioned lymphocytes (8×10^4) with HLA-A2402-positive KE-4 cells in which the tumor antigen protein was expressed and with HLA-A2402-negative QG56 cells in which the tumor antigen protein was expressed, respectively, as targeted cells (1×10^4).

[3] = test system: HLA-A2402-negative QG56 cells; experiment: Induction of CTLs from peripheral blood lymphocytes by peptide; IFN-γ release against QG56 target cells (ELISA); format: cell-based; settings: peripheral blood lymphocytes (HLA-A24 homo healthy donors) stimulated three times with 10 μM peptide, 8×10^4 effectors; target cells QG56 (1×10^4), negative control
Procedure: as §1

| Sequence | activity as HLA-A24-restricted tumor antigen peptide (amount of IFN-γ produced by KE-4CTLs, FIG. 1) [1] | induction of antigen peptide-specific CTLs from peripheral blood lymphocytes [2] | reactivity of peptide-stimulated peripheral blood lymphocytes against KE-4 compared with negative control QG56 [2] | IFN-γ (pg/ml) in Supernatant [2] [pg/mL] | IFN-γ (pg/ml) in Supernatant [3] [pg/mL] |
| --- | --- | --- | --- | --- | --- |
| RMKKLDEEAL [746-755] | function as HLA-A24-restricted tumor antigen peptides | antigen peptide-specific CTLs were induced | stronger reactivities against KE-4 | 595.5 | 281.4 |
| AFRQLSHRF [725-733] | function as HLA-A24-restricted tumor antigen peptides |  |  |  |  |
| RMKKLDEEALL [746-756] | function as HLA-A24-restricted tumor antigen peptides | antigen peptide-specific CTLs were induced | stronger reactivities against KE-4 | 701.5 | 392.0 |
| KMKTERRMKKL [740-750] | function as HLA-A24-restricted tumor antigen peptides |  |  |  |  |
